Read-outs that look alike come from different tables or passages of the source.
Biological target: FGFR4-WT (Homo sapiens (Human), UniProt P22455)
Experiment: Omnia assay for potency assessment against FGFR4 enzyme
Assay type: biochemical
Procedure: A 10× stock solution of FGFR4-WT (PR4380C), (from Invitrogen, Carlsbad, Calif.) corresponding to method a in Table 7, was prepared as described below. Alternatively, a 10× stock solution of FGFR4-WT (F01-11G), (SignalChem, Richmond, BC) corresponding to method b in Table 7, was prepared as described below. A solution of 1.4×ATP (AS001A) and 5× Tyr-Sox conjugated peptide substrate (KNZ3101) were prepared in 1× kinase reaction buffer consisting of 20 mM Tris, pH 7.5, 5 mM MgCl2, 1 mM EGTA, 5 mM β-glycerophosphate, 5% glycerol (10× stock, KB002A) and 0.2 mM DTT (DS001A). […] The serially diluted compounds were prepared on a Tecan EVO100. A second addition of 10 μl of Tyr-Sox FGFR4 substrate was added to each well and the kinase reactions were started with the addition of 35 μL of 1.4×ATP. The reactions were monitored every 71 seconds for 240 minutes at λex360/λem485 in a Synergy plate reader from BioTek (Winooski, Vt.).

[1] = method a: [FGFR4-WT]=10 nM (Invitrogen), [ATP]=300 uM, [Y10-Sox]=10 uM
[2] = method b: [FGFR4-WT]=2.5 nM (SignalChem), [ATP]=250 uM, [Y10-Sox]=10 uM

Sequence of FGFR4-WT (P22455 22-802): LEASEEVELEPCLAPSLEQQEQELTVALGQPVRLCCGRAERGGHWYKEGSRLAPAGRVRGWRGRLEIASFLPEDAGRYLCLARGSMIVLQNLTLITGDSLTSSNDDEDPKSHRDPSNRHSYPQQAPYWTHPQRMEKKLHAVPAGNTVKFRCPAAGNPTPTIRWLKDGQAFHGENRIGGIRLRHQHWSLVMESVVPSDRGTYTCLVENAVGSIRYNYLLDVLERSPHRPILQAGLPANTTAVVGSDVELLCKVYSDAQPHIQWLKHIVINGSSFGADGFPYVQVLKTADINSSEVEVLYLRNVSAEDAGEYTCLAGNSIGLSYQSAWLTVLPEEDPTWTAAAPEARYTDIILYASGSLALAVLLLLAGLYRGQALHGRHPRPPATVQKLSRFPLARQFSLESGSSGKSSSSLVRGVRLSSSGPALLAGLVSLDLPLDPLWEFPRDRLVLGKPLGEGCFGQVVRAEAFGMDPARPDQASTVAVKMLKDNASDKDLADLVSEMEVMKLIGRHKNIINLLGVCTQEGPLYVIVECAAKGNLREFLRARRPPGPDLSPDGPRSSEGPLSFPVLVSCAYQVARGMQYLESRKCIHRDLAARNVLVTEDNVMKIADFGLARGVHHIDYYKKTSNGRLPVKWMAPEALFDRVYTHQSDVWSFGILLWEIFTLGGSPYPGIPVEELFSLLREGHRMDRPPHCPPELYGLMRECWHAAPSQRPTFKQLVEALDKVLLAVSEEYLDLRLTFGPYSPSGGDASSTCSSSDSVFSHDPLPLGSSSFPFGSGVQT

Row | Structure (SMILES) | IC50 [1] [µM] | further results
1 | C=CC(=O)NC1CCCCC1Nc1ncc2c(n1)NC(=O)N(c1c(Cl)c(OC)cc(OC)c1Cl)C2 (racemic) [Compound I-73] | 0.101 to 0.5 | –
2 | C=CC(=O)Nc1ccccc1Nc1ncc2c(n1)N(C)C(=O)N(c1c(Cl)c(OC)cc(OC)c1Cl)C2 [Compound I-2] | – | IC50 [2]: < 0.1 µM
3 | C=CC(=O)Nc1cc(C(F)(F)F)ccc1Nc1ncc2c(n1)N(Cc1ccccc1)C(=O)N(c1c(Cl)c(OC)cc(OC)c1Cl)C2 [Compound I-10] | – | IC50 [2]: > 1 µM
4 | C=CC(=O)Nc1cc(Cl)c(Cl)cc1Nc1ncc2c(n1)N(Cc1ccccc1)C(=O)N(c1c(Cl)c(OC)cc(OC)c1Cl)C2 [Compound I-11] | – | IC50 [2]: 0.501 to 0.999 µM
5 | C=CC(=O)Nc1cc(OCCOC)ccc1Nc1ncc2c(n1)N(Cc1ccccc1)C(=O)N(c1cc(OC)cc(OC)c1)C2 [Compound I-14] | – | IC50 [2]: < 0.1 µM
6 | C=CC(=O)Nc1cc(N2CCN(CC)CC2)ccc1Nc1ncc2c(n1)N(C)C(=O)N(c1cc(OC)cc(OC)c1)C2 [Compound I-15] | – | IC50 [2]: < 0.1 µM
7 | C=CC(=O)Nc1cc(N2CCOCC2)ccc1Nc1ncc2c(n1)N(C)C(=O)N(c1cc(OC)cc(OC)c1)C2 [Compound I-17] | < 0.1 | –
8 | C=CC(=O)Nc1ccccc1Nc1ncc2c(n1)N(C1CC1)C(=O)N(c1c(Cl)c(OC)cc(OC)c1Cl)C2 [Compound I-23] | – | IC50 [2]: < 0.1 µM
9 | C=CC(=O)Nc1ccccc1Nc1ncc2c(n1)N(Cc1ccc(Cl)c(OC)c1)C(=O)N(c1c(Cl)c(OC)cc(OC)c1Cl)C2 [Compound I-24] | – | IC50 [2]: < 0.1 µM
10 | C=CC(=O)Nc1ccc(-c2cnn(C)c2)cc1Nc1ncc2c(n1)N(C)C(=O)N(c1cc(OC)cc(OC)c1)C2 [Compound I-27] | < 0.1 | –
11 | C=CC(=O)N(C)c1ccccc1Nc1ncc2c(n1)N(C)C(=O)N(c1c(Cl)c(OC)cc(OC)c1Cl)C2 [Compound I-29] | 0.101 to 0.5 | –
12 | C=CC(=O)Nc1ccc(N2CCN(CC)CC2)cc1Nc1ncc2c(n1)N(C)C(=O)N(c1cc(OC)cc(OC)c1)C2 [Compound I-30] | < 0.1 | –
13 | C=CC(=O)Nc1cc(N2CCCCC2)ccc1Nc1ncc2c(n1)N(C)C(=O)N(c1cc(OC)cc(OC)c1)C2 [Compound I-31] | < 0.1 | –
14 | C=CCN1C(=O)N(c2cc(OC)cc(OC)c2)Cc2cnc(Nc3ccccc3NC(=O)C=C)nc21 [Compound I-32] | < 0.1 | –
15 | C=CC(=O)Nc1ccccc1Nc1ncc2c(n1)N(C1CC1)C(=O)N(c1cc(OC)cc(OC)c1)C2 [Compound I-34] | < 0.1 | –
16 | C=CC(=O)N(C)c1ccccc1Nc1ncc2c(n1)N(Cc1ccccc1)C(=O)N(c1c(Cl)c(OC)cc(OC)c1Cl)C2 [Compound I-37] | 0.101 to 0.5 | –
17 | C=CC(=O)Nc1ccccc1Nc1ncc2c(n1)N(C)C(=O)N(c1ccccc1)C2 [Compound I-38] | 0.501 to 0.999 | –
18 | C=CC(=O)Nc1ccccc1Nc1ncc2c(n1)N(CC1CCNCC1)C(=O)N(c1cc(OC)cc(OC)c1)C2 [Compound I-40] | < 0.1 | –
19 | C=CC(=O)Nc1ccc(C)cc1Nc1ncc2c(n1)N(C)C(=O)N(c1cc(OC)cc(OC)c1)C2 [Compound I-49] | < 0.1 | –
20 | C=CC(=O)Nc1ccccc1Nc1ncc2c(n1)N(C)C(=O)N(C1CC1)C2 [Compound I-51] | > 1 | –

Row | Structure (SMILES) | IC50 [1] [µM] | further results
21 | C=CC(=O)Nc1ccccc1Nc1ncc2c(n1)N(C)C(=O)N(C1CCCCC1)C2 [Compound I-52] | 0.501 to 0.999 | –
22 | C=CC(=O)Nc1cc(C2CCN(CC)CC2)ccc1Nc1ncc2c(n1)N(C)C(=O)N(c1cc(OC)cc(OC)c1)C2 [Compound I-54] | < 0.1 | –
23 | C=CC(=O)Nc1cc(C2=CCN(CC)CC2)ccc1Nc1ncc2c(n1)N(C)C(=O)N(c1cc(OC)cc(OC)c1)C2 [Compound I-56] | < 0.1 | –
24 | C=CCCN1C(=O)N(c2cc(OC)cc(OC)c2)Cc2cnc(Nc3ccccc3NC(=O)C=C)nc21 [Compound I-57] | < 0.1 | –
25 | C=CC(=O)Nc1ccccc1Nc1ncc2c(n1)N(CCC(O)CO)C(=O)N(c1cc(OC)cc(OC)c1)C2 (stereo not drawn) [Compound I-58] | < 0.1 | –
26 | C=CC(=O)Nc1ccccc1Nc1ncc2c(n1)N(CC1CCN(C(=O)OC(C)(C)C)CC1)C(=O)N(c1cc(OC)cc(OC)c1)C2 [Compound I-60] | < 0.1 | –
27 | C=CC(=O)Nc1ccccc1Oc1ncc2c(n1)N(C)C(=O)N(c1c(Cl)c(OC)cc(OC)c1Cl)C2 [Compound I-65] | < 0.1 | –
28 | C=CC(=O)N[C@@H]1CCCC[C@@H]1Nc1ncc2c(n1)N(Cc1ccccc1)C(=O)N(c1c(Cl)c(OC)cc(OC)c1Cl)C2 [Compound I-66] | > 1 | –
29 | C=CS(=O)(=O)Nc1ccccc1Nc1ncc2c(n1)N(C)C(=O)N(c1cc(OC)cc(OC)c1)C2 [Compound I-67] | < 0.1 | –
30 | C=CC(=O)Nc1ccc(-c2cnn(C)c2)cc1Nc1ncc2c(n1)N(C)C(=O)N(c1c(Cl)c(OC)cc(OC)c1Cl)C2 [Compound I-74] | < 0.1 | –
31 | C=CC(=O)Nc1ccccc1Nc1ncc2c(n1)N(C)C(=O)N(c1cc(OC)cc(OC)c1Cl)C2 [Compound I-75] | < 0.1 | –
32 | C=CC(=O)Nc1cc(-c2cnn(C)c2)ccc1Nc1ncc2c(n1)N(C)C(=O)N(c1cc(OC)cc(OC)c1)C2 [Compound I-77] | < 0.1 | –
33 | C=CC(=O)Nc1ccc(-c2nccs2)cc1Nc1ncc2c(n1)N(C)C(=O)N(c1cc(OC)cc(OC)c1)C2 [Compound I-78] | < 0.1 | –
34 | C=CC(=O)N[C@H]1CCCC[C@H]1Nc1ncc2c(n1)N(Cc1ccccc1)C(=O)N(c1c(Cl)c(OC)cc(OC)c1Cl)C2 [Compound I-82] | – | IC50: < 0.1 µM
35 | C=CC(=O)Nc1cc(-c2nccs2)ccc1Nc1ncc2c(n1)N(C)C(=O)N(c1cc(OC)cc(OC)c1)C2 [Compound I-84] | 0.501 to 0.999 | –
36 | C=CC(=O)Nc1ccccc1Nc1ncc2c(n1)N(Cc1cccc(C#N)c1)C(=O)N(c1cc(OC)cc(OC)c1)C2 [Compound I-90] | < 0.1 | –
37 | C=CC(=O)Nc1ccccc1Nc1ncc2c(n1)N(Cc1nccs1)C(=O)N(c1c(Cl)c(OC)cc(OC)c1Cl)C2 [Compound I-91] | < 0.1 | –
38 | C=CC(=O)Nc1ccccc1Nc1ncc2c(n1)N(CC(=O)OC(C)(C)C)C(=O)N(c1cc(OC)cc(OC)c1)C2 [Compound I-96] | > 1 | –
39 | C=CC(=O)NC1CCCCC1Nc1ncc2c(n1)N(CC1CC1)C(=O)N(c1cc(OC)cc(OC)c1Cl)C2 (stereo not drawn) [Compound I-101] | 0.101 to 0.5 | –
40 | C=CC(=O)Nc1ccccc1Nc1ncc2c(n1)N(CC(F)F)C(=O)N(c1c(Cl)c(OC)cc(OC)c1Cl)C2 [Compound I-103] | < 0.1 | –

Row | Structure (SMILES) | IC50 [1] [µM] | further results
41 | C=CC(=O)Nc1ccccc1Nc1ncc2c(n1)N(C)C(=O)N(c1cc(OC)cc(OC)c1F)C2 [Compound I-108] | < 0.1 | –
42 | C=CC(=O)Nc1ccccc1Nc1ncc2c(n1)N(CC1CC1)C(=O)N(c1cc(OC)cc(OC)c1F)C2 [Compound I-109] | < 0.1 | –
43 | C=CC(=O)Nc1ccccc1Nc1ncc2c(n1)N(CC)C(=O)N(CC)C2 [Compound I-120] | > 1 | –
44 | C=CC(=O)Nc1cc(CN2CCN(CC)CC2)ccc1Nc1ncc2c(n1)N(C)C(=O)N(c1cc(OC)cc(OC)c1)C2 [Compound I-122] | 0.101 to 0.5 | –
45 | C=CC(=O)Nc1cc(N2CCN(C(=O)CCC(=O)O)CC2)ccc1Nc1ncc2c(n1)N(C)C(=O)N(c1c(Cl)c(OC)cc(OC)c1Cl)C2 [Compound I-123] | < 0.1 | –
46 | C=CC(=O)Nc1ccccc1Nc1ncc2c(n1)N(CC1CC1)C(=O)N(c1c(Cl)c(OC)cc(OC)c1Cl)C2 [Compound I-130] | < 0.1 | –
47 | C=CC(=O)Nc1ccccc1Nc1ncc2c(n1)N(Cc1csc(C)n1)C(=O)N(c1c(Cl)c(OC)cc(OC)c1Cl)C2 [Compound I-134] | < 0.1 | –
48 | C=CC(=O)Nc1ccccc1Nc1ncc2c(n1)N(Cc1ccnc(N)c1)C(=O)N(c1c(Cl)c(OC)cc(OC)c1Cl)C2 [Compound I-135] | < 0.1 | –
49 | C=CC(=O)Nc1ccccc1Nc1ncc2c(n1)N(Cc1ccn(C)n1)C(=O)N(c1c(Cl)c(OC)cc(OC)c1Cl)C2 [Compound I-136] | < 0.1 | –
50 | C=CC(=O)Nc1cc(-c2cnn(C)c2)ccc1Nc1ncc2c(n1)N(C)C(=O)N(c1c(Cl)c(OC)cc(OC)c1Cl)C2 [Compound I-141] | < 0.1 | –
51 | C=C(C)C(=O)Nc1ccccc1Nc1ncc2c(n1)N(C)C(=O)N(c1c(Cl)c(OC)cc(OC)c1Cl)C2 [Compound I-142] | < 0.1 | –
52 | C=CC(=O)Nc1ccccc1Nc1ncc2c(n1)N(Cc1ccc(F)c(N)c1)C(=O)N(c1c(Cl)c(OC)cc(OC)c1Cl)C2 [Compound I-144] | < 0.1 | –
53 | C=CC(=O)Nc1cc(-c2nnn(C)n2)ccc1Nc1ncc2c(n1)N(C)C(=O)N(c1c(Cl)c(OC)cc(OC)c1Cl)C2 [Compound I-145] | < 0.1 | –
54 | C=CC(=O)N[C@H]1CCCC[C@H]1Nc1ncc2c(n1)N(Cc1ccn(C)n1)C(=O)N(c1c(Cl)c(OC)cc(OC)c1Cl)C2 [Compound I-147] | < 0.1 | –
55 | C=CC(=O)Nc1cc(C(=O)NC2CCN(C)CC2)ccc1Nc1ncc2c(n1)N(C)C(=O)N(c1c(Cl)c(OC)cc(OC)c1Cl)C2 [Compound I-150] | < 0.1 | –
56 | C=CC(=O)N[C@H]1CCCC[C@H]1Nc1ncc2c(n1)N(Cc1cn[nH]c1)C(=O)N(c1c(Cl)c(OC)cc(OC)c1Cl)C2 [Compound I-152] | < 0.1 | –
57 | C=CC(=O)NCc1ccccc1Nc1ncc2c(n1)N(C)C(=O)N(c1c(Cl)c(OC)cc(OC)c1Cl)C2 [Compound I-181] | – | IC50 [2]: < 0.1 µM
58 | C=CC(=O)NC1CNC(=O)CC1Nc1ncc2c(n1)N(C)C(=O)N(c1c(Cl)c(OC)cc(OC)c1Cl)C2 (stereo not drawn) [Compound I-196] | < 0.1 | –
59 | C=CC(=O)NC1CN(c2ccccn2)CC1Nc1ncc2c(n1)N(C)C(=O)N(c1c(Cl)c(OC)cc(OC)c1Cl)C2 (stereo not drawn) [Compound I-202] | < 0.1 | –
60 | C=CC(=O)N[C@H]1CCCC[C@H]1Nc1ncc2c(n1)N(C)C(=O)N(c1ccc(OC)cc1)C2 [Compound I-222] | > 1 | –
